Data as given in US9945845B2, “Methods of screening using amphibians” (priority 2009, dated 2018).
“Also recorded” adds a separate entry of the source. Read-outs that look alike come from different tables or passages of the source.

Tests used:
[1] = system: HUVEC; assay: HUVEC cell proliferation assay; assay type: cell-based, human; conditions: 10 μM in 0.1% DMSO, 48 hours; for activity at 10 µM: Homo sapiens, HUVEC, 48 h, read-out: HUVEC proliferation
Experimental: (§1) Human umbilical vein endothelial cells (HUVEC) were purchased from PromoCell. […] HUVEC and LEC were cultured in endothelial basal medium EBM (Cambrex) supplemented with 20% fetal bovine serum (Invitrogen), antibiotic-antimycotics (100 U/ml penicillin, 100 μg/ml streptomycin, 250 ng/ml amphotericin; Invitrogen). 2 mM L-glutamine (Invitrogen), 10 μg/ml hydrocortisone (Fluka) and 25 μg/ml N^6,2′-O-dibutyryladenosine 3′,5′-cyclic monophosphate sodium salt (Fluka) for up to eleven passages.
(§2) The intensity of fluorescence, which is proportional to the number of viable cells, was measured using a microplate reader (SpectraMax Gemini EM; Molecular Devices). The chemical treatments were performed in five replicates.
(§3) The cell proliferation assays were performed by treating the endothelial cell cultures with compounds at a screening dose of 10 μM in 0.1% DMSO for 48 hours (FIG. 6a; Table 10).

[2] = system: LEC; assay: LEC cell proliferation assay; assay type: cell-based, human; conditions: 10 μM in 0.1% DMSO, 48 hours; for activity at 10 µM: Homo sapiens, 48 h, read-out: LEC proliferation
Experimental: as §1, §2, §3

[3] = system: HUVEC; assay: HUVEC tube formation assay; assay type: cell-based, human; conditions: 1 μM in 0.1% DMSO; for activity at 1 µM: Homo sapiens, HUVEC
Experimental: as §1
(§4) The effect of the selected chemicals on the formation of tube-like structures was performed as follows. […] After overnight incubation at 37° C. the treated cell cultures were fixed with 4% paraformaldehyde. Each chemical treatment was performed in triplicate and the experiment was repeated at least three times. Three representative images of hotspots with tube-like structures were taken per well using a digital camera (AxioCam MRm, Carl Zeiss) mounted on an inverted microscope (Axiovert 200M, Carl Zeiss). The length of the tube-like structures was measured using the IPLab software (BD Biosciences). For each experimental condition, results are represented as average total tube length (μm) per area (three image fields).
(§5) The effects of the selected compounds on endothelial tube formation was assessed after over treatment of LEC and HUVEC cultures at a compound concentration of 1 μM in 0.1% DMSO. The length of the tube-like structures was measured using the IPLab software.

[4] = system: Xenopus embryos; conditions: for Embr. phen.: embryonic phenotype in the primary screen; for Lethality: — = no stage of lethality given; for Type of edema Ventral: ‡ = edemas also detected in the gut; for Onset (NF): onset of edema
Method in brief: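 Stage 31 (37 hpf) Xenopus embryos, five per well, exposed to 20 µM compound in 1% DMSO at 23 °C for 4 days. Edema, lethality and other external phenotypes were scored daily by two investigators at stages 39, 41, 45 and 47.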

[5] = system: LEC; assay: cells; assay type: cell-based, human; conditions: for activity at 1 µM: Homo sapiens
Experimental: as §1, §4, §5

[6] = system: blood vessel development and/or lymphangiogenesis in Xenopus embryos; assay type: in vivo, Xenopus laevis; conditions: for blood vessel development phenotype (apj expression, in words): 20 μM from stage 31, fixed at stage 35/36; for ISV phenotype: intersomitic vessels; for PCV phenotype: posterior cardinal vein; for VVN phenotype: vitelline vein network
Experimental: All chemicals were purchased from Sigma and 10-mM stock solutions in DMSO were prepared. Chemicals were used at a final concentration of 20 μM in screening medium to treat homozygous albino Xenopus embryos, which lack natural pigmentation. Chemical treatments of embryos (n=7 per well) was initiated at stage 31 (37 hpf) and terminated at stages 35/36 (50 hpf) or 42 (80 hpf). Embryos were fixed in 4% paraformaldehyde and processed for whole mount in situ hybridization.
Where albino embryos were used, the bleaching step was omitted. Semi-automated whole mount in situ hybridizations were performed using the Biolane HTI machine (Hölle & Hüttner AG, Germany). […] Images were captured using a stereomicroscope (SteREO Lumar V12; Carl Zeiss) equipped with a digital camera (AxioCam Color; Carl Zeiss). Composite figures were organized and labeled using Adobe Photoshop CS2 and Adobe Illustrator CS software.
Edema formation or late-stage lethality may result from excretory system defects, (cardio)vascular and/or lymphatic vascular pathologies. […] Embryos were fixed for in situ hybridization either at stage 35/36 to analyze vasculogenesis and intersomitic vein angiogenesis defects or at stage 42 to evaluate possible defects in lymph vessel development (FIGS. 3-5).

[7] = compounds causing lethality, 20 μM, 1% DMSO, treatment from stage 31, Nieuwkoop & Faber stage
[8] = overnight, read-out: HUVEC tube formation
[9] = read-out: HUVEC tube formation (tube length)
[10] = 1 μM in 0.1% DMSO, overnight, read-out: LEC tube formation
[11] = 1 μM in 0.1% DMSO, read-out: LEC tube formation (tube length)
[12] = 20 μM, 1% DMSO, treatment from stage 31
[13] = compounds causing edema, 20 μM, 1% DMSO, treatment from stage 31, scored to stage 47
[14] = 20 μM, 1% DMSO, treatment from stage 31, Nieuwkoop & Faber stage

Compound	HUVEC proliferation [1]	LEC proliferation [2]	HUVEC tube formation ([3]; overnight)	Embr. phen. [4]	LEC tube formation ([5]; 1 μM in 0.1% DMSO, overnight)	blood vessel development phenotype (apj expression, in words) [6]	activity at 10 µM [1] [%]	activity at 10 µM [2] [%]	activity at 1 µM [3, 8] [%]	activity at 1 µM [5, 10] [%]	Lethality (NF) [4, 13]	Type of edema Pericordial ([4]; embryonic stage)	Lethality ([4]; embryonic stage)	Type of edema Ventral ([4]; embryonic stage)	Onset (NF) [4, 14]	Type of edema Pronephric ([4]; embryonic stage)	other results
CCCCOC(=O)NS(=O)(=O)c1sc(CC(C)C)cc1-c1ccc(Cn2c(CC)nc3c(C)cc(C)nc32)cc1 [L-162,313]	+ (+, moderate promotion (>115-150% of control).)	O (O, inactive or marginal effects (85-115% of control);)	− (−, moderate inhibition (50-85% of control):)	LET	− (−, moderate inhibition (50-85% of control):)	potent inhibitors of developmental angiogenesis											Lethality (NF) [4, 7]: 45 NF; Lymphatic phenotype ([6]; Xenopus embryos): normal; ISV phenotype ([6]; Xenopus embryos): impaired; PCV phenotype ([6]; Xenopus embryos): normal; VVN phenotype ([6]; Xenopus embryos): hypoplastic
Oc1c2ccccc2c2c3c(cccc13)N=N2 [SP600125, 1,9-Pyrazoloanthrone]							85 to 115	85 to 115	85 to 115	50 to 85							activity at 1 µM [3, 9]: 110%; Lethality (NF) [4, 7]: 41 NF; activity at 1 µM [5, 11]: 59%
CN(C)c1cc2c(Nc3ccc4c(cnn4Cc4ccccc4)c3)ncnc2cn1 [GW2974, N4-(1-Benzyl-1H-indazol-5-yl)-N6,N6-dimethyl-pyrido[3,4-d)pyrimidine4-4,6-diamine]			− (−, moderate inhibition (50-85% of control):)	EDE	− (−, moderate inhibition (50-85% of control):)						47 NF	41/42	47 embryonic stages according to Nieuwkoop and Faber (NF)	41/42	41/42		edema or other phenotype in compound-treated Xenopus embryos/tadpoles (in words) [4, 12]: enlarged lymph hearts; Lymph heart enlargement ([4]; embryonic stage): 45 embryonic stages according to Nieuwkoop and Faber (NF); Type of edema Periocular ([4]; embryonic stage, * = causing bulging eyes, # = bilateral, causing narrow-set eyes): 41/42; lymph vessel development phenotype (vegfr3 expression, in words) ([6]; 20 μM from stage 31, fixed at stage 42): inhibiting preferentially lymphatic vascular development; also recorded: lymphangiogenesis was largely suppressed; Blood vessel phenotype ([6]; Xenopus embryos): normal; ALH phenotype ([6]; anterior lymph heart, Xenopus embryos): stunted; ALS phenotype ([6]; anterior lymph sac, Xenopus embryos): impaired; PLV phenotype ([6]; posterior lymph vessels, Xenopus embryos): hypoplastic
CCOC(=O)C1=C(C)NC(C)=C(C(=O)OC)C1c1cccc(Cl)c1Cl (stereo not drawn) [Felodipine]							85 to 115	85 to 115	50 to 85	85 to 115	45 NF	41/42	45 embryonic stages according to Nieuwkoop and Faber (NF)	41/42	41/42	41/42	
C#CCN1C(C)=C(C(=O)OC)C(c2cccc([N+](=O)[O-])c2)C(C(=O)OCC)=C1C (stereo not drawn) [MRS 1845, N-Propargylnitrendipene]		O (O, inactive or marginal effects (85-115% of control);)	O (O, inactive or marginal effects (85-115% of control);)		− (−, moderate inhibition (50-85% of control):)						45 NF	41/42	45 embryonic stages according to Nieuwkoop and Faber (NF)	41/42	41/42	41/42	edema or other phenotype in compound-treated Xenopus embryos/tadpoles (in words) [4, 12]: enlarged lymph hearts; Lymph heart enlargement ([4]; embryonic stage): 41/42; effect on LEC tube formation (in words) ([5]; 1 μM in 0.1% DMSO): preferentially blocked tube formation in LEC rather than HUVEC cultures
Cl.c1ccc(CN2CCC3(CCCc4ccccc43)CC2)cc1 [L-687, 384 hydrochloride]	+ (+, moderate promotion (>115-150% of control).)	O (O, inactive or marginal effects (85-115% of control);)	− (−, moderate inhibition (50-85% of control):)		− (−, moderate inhibition (50-85% of control):)	did not affect vascular development											
O=C1Nc2ccc(I)cc2C1=Cc1cc(Br)c(O)c(Br)c1 [GW5074, 3-(3,5-Dibromo-4-hydroxybenzylidine-5-iodo-1,3-dihydro-indol-2-one)]	O (O, inactive or marginal effects (85-115% of control);)		O (O, inactive or marginal effects (85-115% of control);)	EDE	− (−, moderate inhibition (50-85% of control):)	promoting ectopic, premature angiogenesis; also recorded: the VVN was dysplastic					41/42	33/34	41/42		33/34		effect on LEC tube formation (in words) ([5]; 1 μM in 0.1% DMSO): preferentially blocked tube formation in LEC rather than HUVEC cultures; ISV phenotype ([6]; Xenopus embryos): ectopic; PCV phenotype ([6]; Xenopus embryos): normal; VVN phenotype ([6]; Xenopus embryos): dyspiastic
CC1=C(/C=C/C(C)=C/C=C/C(C)=C/C(=O)O)C(C)(C)CCC1 [Retinoic acid]	+ (+, moderate promotion (>115-150% of control).)	+ (+, moderate promotion (>115-150% of control).)					115 to 150	115 to 150	50 to 85	50 to 85	40 NF		39 embryonic stages according to Nieuwkoop and Faber (NF)			39 embryonic stages according to Nieuwkoop and Faber (NF)	activity at 1 µM [3, 9]: 50 to 85%; Type of edema Proctodeal ([4]; embryonic stage): 40 embryonic stages according to Nieuwkoop and Faber (NF); Type of edema Cerebral ([4]; embryonic stage, + = cerebral edema extending dorso-anteriorly and displacing the eyes): 39+ embryonic stages according to Nieuwkoop and Faber (NF); activity at 1 µM [5, 11]: 50 to 85%
O=Nc1c(-c2c(O)[nH]c3ccccc23)[nH]c2ccccc12 [Indirubin-3′-oxime]							50 to 85	85 to 115	50 to 85								Lethality (NF) ([4]; Xenopus laevis, in vivo): 45 NF; scored in the phenotypic Xenopus screens ([4]; in vivo): active; activity at 1 µM ([5]; read-out: LEC tube formation): 85 to 115%
